Experimental findings from PubChem BioAssay AID651630 (Sanford-Burnham Center for Chemical Genomics, 2012) are described below.

The subject of one experiment is DAPI. Kind of experiment: triacylglycerol accumulation inhibitor potency, dose response, cell-based, panel, Nile Red and DAPI fluorescence, H9c2 (AID 651630).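 Also: cells exposed to compound overnight before fixation and staining.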 The following applies: H9c2 cells, DAPI nuclear fluorescence (cytotoxicity counter-readout), oleic acid.
The next experiment deals with TAG. The experiment is described as above. Conditions: H9c2 cells, Nile Red TAG fluorescence, oleic acid.

In general, IC50 refers to the concentration at which inhibition is half-maximal.

Active and inactive are the calls of the source.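 The calls were made as follows: active = lipid-stain IC50 at or below a set limit, with nuclear-stain toxicity IC50 at least five times higher; inactive = the rest.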

As for `CN(C)CCCN1c2ccccc2Sc2ccc3ccccc3c21`, the values for the IC50 cytotoxicity (DAPI nuclear signal decrease) in the experiment on DAPI (mean of runs), with DAPI (run 1) and in the experiment with DAPI (run 2) were > 25 µM (inactive), over 25 µM and over 25 µM, respectively. Moreover, the IC50 was > 25 µM (inactive) in the experiment with TAG (mean of runs), over 25 µM in the experiment with TAG (run 1) and over 25 µM in the experiment on TAG (run 2).

Turning to `CCN(C(=O)COC(=O)c1ccc([N+](=O)[O-])o1)c1cccc2ccccc12`, the IC50 cytotoxicity (DAPI nuclear signal decrease) is 20 µM (inactive) in the experiment on DAPI (mean of runs), 18.1 µM in the experiment with DAPI (run 1) and 21.9 µM in the experiment on DAPI (run 2). The results for the IC50 with TAG (run 1) and with TAG (run 2) were 19.4 µM and over 25 µM, respectively.

Take `CC1(C)CCCN(Cc2c(O)ccc3c(=O)c(-c4nc5ccccc5s4)c(N)oc23)C1`: the IC50 cytotoxicity (DAPI nuclear signal decrease) with DAPI (mean of runs) is > 25 µM (inactive); with DAPI (run 1) it was over 25 µM; in the experiment on DAPI (run 2), over 25 µM. Further, the IC50 with TAG (mean of runs), with TAG (run 1) and with TAG (run 2) was 10 µM each time.

On to `COC(=O)[C@@]1(Cc2ccccc2)[C@H]2C(=O)N(Cc3ccccc3)C(=O)[C@H]2[C@H]2CN=C(SCc3ccc(Cl)cc3)N21`, for which the figures for the IC50 cytotoxicity (DAPI nuclear signal decrease) with DAPI (mean of runs), in the experiment on DAPI (run 1) and in the experiment on DAPI (run 2) were > 25 µM (inactive), over 25 µM and over 25 µM, respectively. The IC50 is 9.75 µM with TAG (mean of runs), 10.4 µM in the experiment on TAG (run 1) and 9.1 µM with TAG (run 2).

On to `COc1ccc(CNC(=O)c2ccc(N3CCC4(CC3)CC(c3ccc(Cl)cc3)=NO4)c(NC(=O)Cc3ccc(F)cc3)c2)cc1`, for which the IC50 cytotoxicity (DAPI nuclear signal decrease) in the experiment with DAPI (mean of runs) is > 25 µM (inactive); with DAPI (run 1), over 25 µM; in the experiment with DAPI (run 2), over 25 µM. In addition, the IC50 was > 25 µM (inactive) with TAG (mean of runs), over 25 µM with TAG (run 1) and over 25 µM with TAG (run 2).

Consider `Cc1cccc2sc(NC(=O)C3CCCN(S(=O)(=O)c4cccc5nonc45)C3)nc12` (centres undefined), for which the results for the IC50 cytotoxicity (DAPI nuclear signal decrease) with DAPI (mean of runs), with DAPI (run 1) and with DAPI (run 2) were > 25 µM (inactive), over 25 µM and over 25 µM, respectively. Also, the IC50 was 10.5 µM in the experiment with TAG (mean of runs), 12.2 µM in the experiment with TAG (run 1) and 8.72 µM in the experiment on TAG (run 2).

As for `COc1ccc(OC)c(N(CCN2C(=O)c3ccccc3C2=O)C(=O)CCl)c1`, the IC50 cytotoxicity (DAPI nuclear signal decrease) in the experiment on DAPI (mean of runs) is > 25 µM (inactive); with DAPI (run 1) it was over 25 µM; in the experiment with DAPI (run 2) it was over 25 µM. The IC50 in the experiment on TAG (mean of runs) was > 25 µM (inactive); in the experiment on TAG (run 1), over 25 µM; in the experiment with TAG (run 2), over 25 µM.

Consider `COc1ccc(-c2cc(C(=O)Nc3cc(OC)cc(C(=O)Nc4cccc(C(F)(F)F)c4)c3)[nH]n2)cc1`, for which the IC50 cytotoxicity (DAPI nuclear signal decrease) was > 25 µM (inactive) in the experiment with DAPI (mean of runs), over 25 µM with DAPI (run 1) and over 25 µM with DAPI (run 2). Also, the IC50 is over 25 µM in the experiment with TAG (run 1) and 4.64 µM with TAG (run 2).

With `C[C@H](O)[C@@H]1CN2CCc3c([nH]c4ccc(-c5ccc6c(c5)OCO6)cc34)[C@@H]2C[C@@H]1N(C)C(=O)Nc1cc(Cl)cc(Cl)c1`, the figures for the IC50 cytotoxicity (DAPI nuclear signal decrease) with DAPI (mean of runs), in the experiment with DAPI (run 1) and in the experiment with DAPI (run 2) were > 25 µM (inactive), over 25 µM and over 25 µM, respectively. In addition, the IC50 in the experiment with TAG (mean of runs) was 18.2 µM (inactive); in the experiment with TAG (run 1), 11.9 µM; in the experiment with TAG (run 2), 24.5 µM.

`COc1ccc(-c2nc(-c3ccccc3)c(-c3cc([N+](=O)[O-])ccc3C)[nH]2)cc1OC`: the figures for the IC50 cytotoxicity (DAPI nuclear signal decrease) in the experiment with DAPI (mean of runs), in the experiment on DAPI (run 1) and with DAPI (run 2) were > 25 µM (inactive), over 25 µM and over 25 µM, respectively. Moreover, the IC50 was 12.9 µM with TAG (mean of runs), 12 µM with TAG (run 1) and 13.9 µM in the experiment with TAG (run 2).

Regarding `Cc1cc(N/N=C\c2ccc(Br)cc2)nc(-n2nc(C)cc2C)n1`, the IC50 cytotoxicity (DAPI nuclear signal decrease) is > 25 µM (inactive) with DAPI (mean of runs), over 25 µM with DAPI (run 1) and over 25 µM with DAPI (run 2). The figures for the IC50 with TAG (mean of runs), with TAG (run 1) and in the experiment on TAG (run 2) were > 25 µM (inactive), over 25 µM and over 25 µM, respectively.

`Cc1ccc(NC(=O)c2nc[nH]c2C(=O)NCCCCNC(=O)c2[nH]cnc2C(=O)Nc2ccc(C)cc2)cc1`: the IC50 cytotoxicity (DAPI nuclear signal decrease) in the experiment with DAPI (mean of runs) was > 25 µM (inactive); in the experiment on DAPI (run 1), over 25 µM; in the experiment with DAPI (run 2), over 25 µM. Further, the IC50 in the experiment with TAG (mean of runs) was 5.46 µM; in the experiment on TAG (run 1), 6.27 µM; in the experiment with TAG (run 2), 4.66 µM.

With `Cc1ccc(Cn2c(C(C)Nc3nc(-c4ccc(Cl)c([N+](=O)[O-])c4)cs3)nc3cc(C(F)(F)F)ccc32)cc1` (centres undefined), the IC50 cytotoxicity (DAPI nuclear signal decrease) is over 25 µM with DAPI (run 1) and 7.97 µM in the experiment on DAPI (run 2). Besides, the IC50 in the experiment with TAG (mean of runs) is 8.37 µM; in the experiment with TAG (run 1) it was 6.7 µM; in the experiment on TAG (run 2) it was 10 µM.

Take `O=C(Nc1cccc2ncccc12)c1ccc(Cl)cc1`: the IC50 cytotoxicity (DAPI nuclear signal decrease) in the experiment with DAPI (mean of runs) is > 25 µM (inactive); in the experiment with DAPI (run 1), over 25 µM; with DAPI (run 2), over 25 µM. Moreover, the IC50 with TAG (mean of runs) is 6.22 µM; in the experiment with TAG (run 1), 6.27 µM; in the experiment on TAG (run 2), 6.17 µM.

For `Cc1cccc(-c2ccc3[nH]c4c(c3c2)CCN2C[C@@H]([C@H](C)OC(=O)Nc3ccccc3C)[C@@H](N(C)C(=O)Nc3ccccc3C)C[C@@H]42)c1`, the figures for the IC50 cytotoxicity (DAPI nuclear signal decrease) with DAPI (mean of runs), in the experiment on DAPI (run 1) and with DAPI (run 2) were > 25 µM (inactive), over 25 µM and over 25 µM, respectively. The IC50 with TAG (mean of runs) was 15.6 µM (inactive); in the experiment with TAG (run 1), 15.5 µM; in the experiment with TAG (run 2), 15.6 µM.

On to `COc1ccc(-c2sc3cc4c(cc3c2C#Cc2ccc(N)cc2)OCO4)cc1`, for which the IC50 cytotoxicity (DAPI nuclear signal decrease) in the experiment with DAPI (mean of runs) is > 25 µM (inactive); in the experiment on DAPI (run 1), over 25 µM; in the experiment with DAPI (run 2), over 25 µM. Further, the IC50 was > 25 µM (inactive) in the experiment with TAG (mean of runs), over 25 µM in the experiment with TAG (run 1) and over 25 µM in the experiment with TAG (run 2).

Regarding `O=C(Nc1ccc([N+](=O)[O-])cn1)c1cc(-c2cccc(Cl)c2)nc2ccccc12`, the IC50 cytotoxicity (DAPI nuclear signal decrease) with DAPI (run 1) and in the experiment on DAPI (run 2) was over 25 µM throughout. For the same compound, the IC50 was 3.69 µM in the experiment with TAG (mean of runs), 3.93 µM with TAG (run 1) and 3.46 µM in the experiment with TAG (run 2).

Take `Cc1cccc(C(=O)N[C@H](C(=O)Nc2ncc(C)s2)C(C)C)c1`: the figures for the IC50 cytotoxicity (DAPI nuclear signal decrease) with DAPI (run 1) and with DAPI (run 2) were 22.9 µM and over 25 µM, respectively. Moreover, the results for the IC50 in the experiment on TAG (mean of runs), in the experiment on TAG (run 1) and in the experiment with TAG (run 2) were 9.36 µM, 9.74 µM and 8.97 µM, respectively.

In the case of `COc1ccc(C(=O)Nc2ccc(Cl)cc2C(=O)NCc2ccco2)cc1`, the IC50 cytotoxicity (DAPI nuclear signal decrease) with DAPI (mean of runs) was > 25 µM (inactive); with DAPI (run 1), over 25 µM; in the experiment on DAPI (run 2) it was over 25 µM. Besides, the IC50 in the experiment with TAG (mean of runs) is 16.9 µM (inactive); in the experiment on TAG (run 1), 16.2 µM; in the experiment on TAG (run 2) it was 17.7 µM.
